Measured values: patent publication US9302999B2, “Substituted triazoles as herbicides” (E. I. DU PONT DE NEMOURS AND COMPANY, priority 2012, dated 2016)

Key:
Format in all cases: in vivo
[1] = system: rice (Oryza sativa); test: Test C flooded paddy test: rice; details: scale 0 to 100 (0 no effect, 100 complete control)
From the text: (§1) Plant species in the flooded paddy test consisted of rice (Oryza sativa), sedge, umbrella (small-flower umbrella sedge, Cyperus difformis), ducksalad (Heteranthera limosa) and barnyardgrass (Echinochloa crus-galli) grown to the 2-leaf stage for testing. At time of treatment, test pots were flooded to 3 cm above the soil surface, treated by application of test compounds directly to the paddy water, and then maintained at that water depth for the duration of the test.
(§2) Treated plants and controls were maintained in a greenhouse for 13 to 15 days, after which time all species were compared to controls and visually evaluated. Plant response ratings, summarized in Table C, are based on a scale of 0 to 100 where 0 is no effect and 100 is complete control. A dash (-) response means no test result.

[2] = system: crabgrass, large (large crabgrass, Digitaria sanguinalis); test: Test A pre-/postemergence: crabgrass, large; details: for Crabgrass, Large plant response rating: Postemergence; for Plant response rating, Crabgrass, Large: Preemergence
Procedure, shortened: (§3)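 Whole-plant greenhouse assay in loam/sand. Preemergence directed soil spray plus simultaneous postemergence spray (one- to two-leaf stage, 2–10 cm). Rated visually ~10 days later, 0 = no effect, 100 = complete control.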

[3] = system: barnyardgrass (Echinochloa crus-galli); test: Test C flooded paddy test: barnyardgrass; details: scale 0 to 100 (0 no effect, 100 complete control)
From the text: as §1, §2

[4] = system: barnyardgrass (Echinochloa crus-galli); test: Test A pre-/postemergence: barnyardgrass; details: for Barnyardgrass plant response rating: Postemergence; for Plant response rating, Barnyardgrass: Preemergence
Procedure, shortened: as §3

[5] = system: wheat (Triticum aestivum); test: Test A pre-/postemergence: wheat; details: for Wheat plant response rating: Postemergence; for Plant response rating, Wheat: Preemergence
Procedure, shortened: as §3

[6] = system: ducksalad (Heteranthera limosa); test: Test C flooded paddy test: ducksalad; details: scale 0 to 100 (0 no effect, 100 complete control)
From the text: as §1, §2

[7] = system: pigweed (Amaranthus retroflexus); test: Test A pre-/postemergence: pigweed; details: for Pigweed plant response rating: Postemergence; for Plant response rating, Pigweed: Preemergence
Procedure, shortened: as §3

[8] = system: corn (Zea mays); test: Test A pre-/postemergence: corn; details: for Corn plant response rating: Postemergence; for Plant response rating, Corn: Preemergence
Procedure, shortened: as §3

[9] = system: sedge, umbrella (small-flower umbrella sedge, Cyperus difformis); test: Test C flooded paddy test: sedge, umbrella; details: scale 0 to 100 (0 no effect, 100 complete control)
Procedure, shortened: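 Plants were grown to the 2-leaf stage, pots flooded to 3 cm above soil, and test compounds applied directly to the paddy water, with that depth held throughout. After 13 to 15 days in a greenhouse, injury was visually rated against controls on a 0 (no effect) to 100 (complete control) scale.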

[10] = system: velvetleaf (Abutilon theophrasti); test: Test A pre-/postemergence: velvetleaf; details: for Velvetleaf plant response rating: Postemergence; for Plant response rating, Velvetleaf: Preemergence
Procedure, shortened: as §3

[11] = system: foxtail, giant (giant foxtail, Setaria faberii); test: Test A pre-/postemergence: foxtail, giant; details: for Foxtail, Giant plant response rating: Postemergence; for Plant response rating, Foxtail, Giant: Preemergence
Procedure, shortened: as §3

[12] = system: morningglory (Ipomoea spp.); test: Test A pre-/postemergence: morningglory; details: for Morningglory plant response rating: Postemergence; for Plant response rating, Morningglory: Preemergence
Procedure, shortened: as §3

[13] = Flood (flooded paddy test), 62 g ai/ha, visual rating after 13 to 15 days
[14] = Flood (flooded paddy test), 250 g ai/ha, visual rating after 13 to 15 days
[15] = 125 g ai/ha, 0 to 100 scale, 0 is no effect, 100 is complete control
[16] = 500 g ai/ha, visual rating on 0 to 100 scale (0 no effect, 100 complete control), approximately ten days
[17] = 125 g ai/ha, 0 to 100 scale (0 no effect, 100 complete control)
[18] = 500 g ai/ha, 0 to 100 scale, 0 is no effect, 100 is complete control
[19] = Flood (flooded paddy test), 125 g ai/ha, visual rating after 13 to 15 days

Cc1nn(-c2ccc(C(F)(F)F)cc2)nc1Cn1c(Cl)nc(C(F)(F)F)c1Cl [Compound 11]
20: Pigweed plant response rating [7, 16]
0: Plant response rating, Rice [1, 13] | Plant response rating, Rice [1, 14] | Crabgrass, Large plant response rating [2, 15] | Crabgrass, Large plant response rating [2, 16] | Plant response rating, Crabgrass, Large [2, 17] | Plant response rating, Crabgrass, Large [2, 18] | Plant response rating, Barnyardgrass [3, 13] | Plant response rating, Barnyardgrass [3, 14] | Barnyardgrass plant response rating [4, 15] | Barnyardgrass plant response rating [4, 16] | Plant response rating, Barnyardgrass [4, 17] | Plant response rating, Barnyardgrass [4, 18] | Wheat plant response rating [5, 15] | Wheat plant response rating [5, 16] | Plant response rating, Wheat [5, 17] | Plant response rating, Wheat [5, 18] | Plant response rating, Ducksalad [6, 13] | Plant response rating, Ducksalad [6, 14] | Pigweed plant response rating [7, 15] | Plant response rating, Pigweed [7, 17] | Plant response rating, Pigweed [7, 18] | Corn plant response rating [8, 15] | Corn plant response rating [8, 16] | Plant response rating, Corn [8, 17] | Plant response rating, Corn [8, 18] | Plant response rating, Sedge, Umbrella [9, 13] | Plant response rating, Sedge, Umbrella [9, 14] | Velvetleaf plant response rating [10, 15] | Velvetleaf plant response rating [10, 16] | Plant response rating, Velvetleaf [10, 17] | Plant response rating, Velvetleaf [10, 18] | Foxtail, Giant plant response rating [11, 15] | Foxtail, Giant plant response rating [11, 16] | Plant response rating, Foxtail, Giant [11, 17] | Plant response rating, Foxtail, Giant [11, 18] | Morningglory plant response rating [12, 15] | Morningglory plant response rating [12, 16] | Plant response rating, Morningglory [12, 17] | Plant response rating, Morningglory [12, 18]

Cc1nn(-c2ccc(C(F)(F)F)cc2)nc1Cn1cnc(C(F)(F)F)c1Cl [Compound 13]
0: Plant response rating, Rice [1, 13] | Plant response rating, Rice [1, 14] | Crabgrass, Large plant response rating [2, 15] | Crabgrass, Large plant response rating [2, 16] | Plant response rating, Crabgrass, Large [2, 17] | Plant response rating, Crabgrass, Large [2, 18] | Plant response rating, Barnyardgrass [3, 13] | Plant response rating, Barnyardgrass [3, 14] | Barnyardgrass plant response rating [4, 15] | Barnyardgrass plant response rating [4, 16] | Plant response rating, Barnyardgrass [4, 17] | Plant response rating, Barnyardgrass [4, 18] | Wheat plant response rating [5, 15] | Wheat plant response rating [5, 16] | Plant response rating, Wheat [5, 17] | Plant response rating, Wheat [5, 18] | Plant response rating, Ducksalad [6, 13] | Plant response rating, Ducksalad [6, 14] | Pigweed plant response rating [7, 15] | Pigweed plant response rating [7, 16] | Plant response rating, Pigweed [7, 17] | Plant response rating, Pigweed [7, 18] | Corn plant response rating [8, 15] | Corn plant response rating [8, 16] | Plant response rating, Corn [8, 17] | Plant response rating, Corn [8, 18] | Plant response rating, Sedge, Umbrella [9, 13] | Plant response rating, Sedge, Umbrella [9, 14] | Velvetleaf plant response rating [10, 15] | Velvetleaf plant response rating [10, 16] | Plant response rating, Velvetleaf [10, 17] | Plant response rating, Velvetleaf [10, 18] | Foxtail, Giant plant response rating [11, 15] | Plant response rating, Foxtail, Giant [11, 17] | Plant response rating, Foxtail, Giant [11, 18] | Plant response rating, Morningglory [12, 17] | Plant response rating, Morningglory [12, 18]
10: Foxtail, Giant plant response rating [11, 16] | Morningglory plant response rating [12, 15] | Morningglory plant response rating [12, 16]

COc1nn(-c2ccc(C(F)(F)F)cc2)nc1Cn1cnc(C(F)(F)F)n1 [Compound 18]
0: Plant response rating, Rice [1, 13] | Plant response rating, Rice [1, 19] | Plant response rating, Rice [1, 14] | Plant response rating, Rice ([1]; Flood, 31 g ai/ha) | Plant response rating, Barnyardgrass [3, 13] | Plant response rating, Barnyardgrass [3, 19] | Plant response rating, Barnyardgrass [3, 14] | Plant response rating, Barnyardgrass ([3]; Flood, 31 g ai/ha) | Plant response rating, Wheat [5, 17] | Plant response rating, Wheat [5, 18] | Plant response rating, Ducksalad [6, 13] | Plant response rating, Ducksalad [6, 19] | Plant response rating, Ducksalad [6, 14] | Plant response rating, Ducksalad ([6]; Flood, 31 g ai/ha) | Plant response rating, Corn [8, 17] | Plant response rating, Corn [8, 18] | Plant response rating, Sedge, Umbrella [9, 13] | Plant response rating, Sedge, Umbrella ([9]; Flood, 31 g ai/ha)
60: Crabgrass, Large plant response rating [2, 15] | Barnyardgrass plant response rating [4, 16]
70: Velvetleaf plant response rating [10, 15] | Foxtail, Giant plant response rating [11, 16]
100: Pigweed plant response rating [7, 15] | Pigweed plant response rating [7, 16] | Plant response rating, Pigweed [7, 18]
40: Plant response rating, Sedge, Umbrella [9, 19]
65: Plant response rating, Sedge, Umbrella [9, 14]
30: Plant response rating, Barnyardgrass [4, 18] | Wheat plant response rating [5, 16] | Corn plant response rating [8, 16] | Plant response rating, Velvetleaf [10, 18] | Foxtail, Giant plant response rating [11, 15]
90: Plant response rating, Crabgrass, Large [2, 17] | Plant response rating, Crabgrass, Large [2, 18] | Plant response rating, Foxtail, Giant [11, 18] | Morningglory plant response rating [12, 16]
80: Crabgrass, Large plant response rating [2, 16] | Plant response rating, Pigweed [7, 17] | Velvetleaf plant response rating [10, 16] | Plant response rating, Foxtail, Giant [11, 17] | Morningglory plant response rating [12, 15]
10: Plant response rating, Morningglory [12, 17]
50: Barnyardgrass plant response rating [4, 15] | Plant response rating, Morningglory [12, 18]
20: Plant response rating, Barnyardgrass [4, 17] | Wheat plant response rating [5, 15] | Corn plant response rating [8, 15] | Plant response rating, Velvetleaf [10, 17]

Cc1nn(-c2ccc(F)cc2)nc1Cn1c(Cl)nc(C(F)(F)F)c1Cl [Compound 20]
10: Crabgrass, Large plant response rating [2, 16] | Corn plant response rating [8, 16] | Foxtail, Giant plant response rating [11, 16] | Morningglory plant response rating [12, 16]
0: Plant response rating, Rice [1, 13] | Plant response rating, Rice [1, 19] | Plant response rating, Rice [1, 14] | Plant response rating, Rice ([1]; Flood, 31 g ai/ha) | Crabgrass, Large plant response rating [2, 15] | Plant response rating, Crabgrass, Large [2, 17] | Plant response rating, Crabgrass, Large [2, 18] | Plant response rating, Barnyardgrass [3, 13] | Plant response rating, Barnyardgrass [3, 19] | Plant response rating, Barnyardgrass [3, 14] | Plant response rating, Barnyardgrass ([3]; Flood, 31 g ai/ha) | Barnyardgrass plant response rating [4, 15] | Barnyardgrass plant response rating [4, 16] | Plant response rating, Barnyardgrass [4, 17] | Plant response rating, Barnyardgrass [4, 18] | Wheat plant response rating [5, 15] | Wheat plant response rating [5, 16] | Plant response rating, Wheat [5, 17] | Plant response rating, Wheat [5, 18] | Plant response rating, Ducksalad [6, 13] | Plant response rating, Ducksalad [6, 19] | Plant response rating, Ducksalad [6, 14] | Plant response rating, Ducksalad ([6]; Flood, 31 g ai/ha) | Pigweed plant response rating [7, 15] | Plant response rating, Pigweed [7, 17] | Plant response rating, Pigweed [7, 18] | Corn plant response rating [8, 15] | Plant response rating, Corn [8, 17] | Plant response rating, Corn [8, 18] | Plant response rating, Sedge, Umbrella [9, 13] | Plant response rating, Sedge, Umbrella [9, 19] | Plant response rating, Sedge, Umbrella [9, 14] | Plant response rating, Sedge, Umbrella ([9]; Flood, 31 g ai/ha) | Velvetleaf plant response rating [10, 15] | Plant response rating, Velvetleaf [10, 17] | Plant response rating, Velvetleaf [10, 18] | Foxtail, Giant plant response rating [11, 15] | Plant response rating, Foxtail, Giant [11, 17] | Plant response rating, Foxtail, Giant [11, 18] | Morningglory plant response rating [12, 15] | Plant response rating, Morningglory [12, 17] | Plant response rating, Morningglory [12, 18]
30: Pigweed plant response rating [7, 16]
20: Velvetleaf plant response rating [10, 16]
